In the test the test system is P388 leukemia. Nature of the test: NCI tumour cell line growth inhibition, 48 h.

Molecules are shown by their SMILES.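 Protocol summary: plate cells (96-well), add compound at 5 concentrations, incubate 48 h, interpolate endpoints linearly. At the TGI there is no net growth.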

`COc1cc(C[C@H]2c3cc(OC)c(OC)cc3CCN2C)c(Oc2cc3c(cc2OC)-c2c(OC)c(OC)cc4c2[C@H](C3)N(C)CC4)cc1OC` had a TGI of 22 µM.

Molecule `CC1CCC(NC(=O)N(CCCl)N=O)CC1` (configuration not stated) displayed a TGI of 55.8 µM.

Source of the values: PubChem BioAssay (NCI).
